Assays:
DU-145 = experiment: NCI-60 screen (SRB), prostate cancer; details: Homo sapiens
SW-620 = experiment: NCI-60 screen (SRB), colon cancer
OVCAR-5 = experiment: NCI-60 screen (SRB), ovarian cancer; details: Homo sapiens
UO-31 = experiment: NCI-60 screen (SRB), renal cancer; details: Homo sapiens
SR = experiment: NCI-60 screen (SRB), leukemia
K-562 = experiment: NCI-60 screen (SRB), leukemia; details: Homo sapiens
UACC-62 = experiment: NCI-60 screen (SRB), melanoma; details: Homo sapiens
HL-60(TB) = experiment: cells; details: Homo sapiens
U251 = experiment: NCI-60 screen (SRB), CNS cancer; details: Homo sapiens
T-47D = experiment: NCI-60 screen (SRB), breast cancer; details: Homo sapiens, T47D
SK-MEL-28 = experiment: NCI-60 screen (SRB), melanoma; details: Homo sapiens
breast cancer cell lines = experiment: NCI-60 screen (SRB), breast cancer panel; assay type: cell-based; details: Homo sapiens, single dose 10 μM, read-out: GI (growth inhibition), range over panel
HT29 = experiment: NCI-60 screen (SRB), colon cancer; details: Homo sapiens
MOLT-4 = experiment: NCI-60 screen (SRB), leukemia; details: Homo sapiens
SF-268 = experiment: NCI-60 screen (SRB), CNS cancer; details: Homo sapiens
RPMI-8226 = experiment: NCI-60 screen (SRB), leukemia; details: Homo sapiens
[1] = tested on: 60 human cancer cell lines; experiment: NCI-60 screen (SRB), whole panel; assay type: cell-based; details: Homo sapiens
HCC-2998 = experiment: NCI-60 screen (SRB), colon cancer; details: Homo sapiens
OVCAR-8 = experiment: NCI-60 screen (SRB), ovarian cancer; details: Homo sapiens
SF-539 = experiment: NCI-60 screen (SRB), CNS cancer; details: Homo sapiens
KM12 = experiment: NCI-60 screen (SRB), colon cancer; details: Homo sapiens
A549/ATCC = experiment: NCI-60 screen (SRB), non-small cell lung cancer; details: Homo sapiens
MDA-MB-435 = experiment: NCI-60 screen (SRB), melanoma; details: Homo sapiens
LOX IMVI = experiment: NCI-60 screen (SRB), melanoma
SK-OV-3 = experiment: NCI-60 screen (SRB), ovarian cancer; details: Homo sapiens
CAKI-1 = experiment: NCI-60 screen (SRB), renal cancer; details: Homo sapiens
IGROV1 = experiment: NCI-60 screen (SRB), ovarian cancer; details: Homo sapiens
colon cancer cell lines = experiment: NCI-60 screen (SRB), colon cancer panel; assay type: cell-based; details: Homo sapiens, single dose 10 μM, read-out: GI (growth inhibition), range over panel
TK-10 = experiment: NCI-60 screen (SRB), renal cancer; details: Homo sapiens
leukemia cell lines = experiment: NCI-60 screen (SRB), leukemia panel; assay type: cell-based; details: Homo sapiens; leukemia panel, single dose 10 μM; read-out: GI (growth inhibition), range over panel
SN12C = experiment: NCI-60 screen (SRB), renal cancer; details: Homo sapiens
OVCAR-4 = experiment: NCI-60 screen (SRB), ovarian cancer; details: Homo sapiens
HCT-15 = experiment: NCI-60 screen (SRB), colon cancer
HS 578T = experiment: NCI-60 screen (SRB), breast cancer; details: Homo sapiens, Hs-578T

COc1cc(OC)c(S(N)(=O)=O)cc1C(=O)/C=C/c1ccc(Cl)cc1 [Compound 17b, (E)-5-(3-(4-Chlorophenyl)acryloyl)-2,4-dimethoxybenzenesulfonamide]
IC50 (DU-145; DU-145): 3.44 µM | CC50 (DU-145; DU-145, read-out: LC50): 42.2 µM | IC50 (SW-620; Homo sapiens, SW-620): 2.49 µM | CC50 (SW-620; Homo sapiens, SW-620, read-out: LC50): 95.9 µM | lethality (SW-620; SW-620, single dose 10 μM): 39.92% | IC50 (OVCAR-5; OVCAR-5): 3.18 µM | CC50 (OVCAR-5; OVCAR-5, read-out: LC50): 39 µM | IC50 (UO-31; UO-31): 2.36 µM | CC50 (UO-31; UO-31, read-out: LC50): 33.1 µM | IC50 (SR; Homo sapiens): 2.11 µM | CC50 (SR; Homo sapiens, read-out: LC50): > 100 µM | lethality (SR; single dose 10 μM): 19.50% | IC50 (K-562; K562): 1.85 µM | CC50 (K-562; K562, read-out: LC50): > 100 µM | IC50 (UACC-62; UACC-62): 2.67 µM | CC50 (UACC-62; UACC-62, read-out: LC50): 40.8 µM | IC50 (HL-60(TB); HL-60): 1.91 µM | CC50 (HL-60(TB); HL-60, read-out: LC50): > 100 µM | IC50 (U251; U-251): 2.18 µM | CC50 (U251; U-251, read-out: LC50): > 100 µM | IC50 (T-47D): 12.4 µM | CC50 (T-47D; read-out: LC50): 64.6 µM | IC50 (SK-MEL-28; SK-MEL-28): 3.03 µM | CC50 (SK-MEL-28; SK-MEL-28, read-out: LC50): 33.4 µM | inhibition at 10 µM (breast cancer cell lines): 73.9 to 100% | IC50 (HT29; HT-29): 2.18 µM | CC50 (HT29; HT-29, read-out: LC50): 9.97 µM | IC50 (MOLT-4; MOLT-4): 2.83 µM | CC50 (MOLT-4; MOLT-4, read-out: LC50): > 100 µM | IC50 (SF-268; SF-268): 3.75 µM | CC50 (SF-268; SF-268, read-out: LC50): > 100 µM | IC50 (RPMI-8226; RPMI-8226): 1.86 µM | CC50 (RPMI-8226; RPMI-8226, read-out: LC50): > 100 µM | IC50 ([1]; five-dose screen, read-out: IC50 values against most cell lines (range)): 0.73 to 18.6 µM | inhibition at 10 µM ([1]; single dose 10 μM, mean over 60 cell lines, over 100% = cell death, read-out: Mean growth inhibition (GI) percentage): 94.1% | IC50 (HCC-2998; HCC 2998): 2.41 µM | CC50 (HCC-2998; HCC 2998, read-out: LC50): 22.3 µM | IC50 (OVCAR-8; OVCAR-8): 3.01 µM | CC50 (OVCAR-8; OVCAR-8, read-out: LC50): > 100 µM | IC50 (SF-539; SF-539): 2.14 µM | CC50 (SF-539; SF-539, read-out: LC50): 12.6 µM | IC50 (KM12; KM12): 1.82 µM | CC50 (KM12; KM12, read-out: LC50): > 100 µM | IC50 (A549/ATCC; A549): 3.17 µM | CC50 (A549/ATCC; A549, read-out: LC50): > 100 µM | IC50 (MDA-MB-435; MDA-MB-435): 2.08 µM | CC50 (MDA-MB-435; MDA-MB-435, read-out: LC50): 29.3 µM | IC50 (LOX IMVI; Homo sapiens): 0.73 µM | CC50 (LOX IMVI; Homo sapiens, read-out: LC50): 7.03 µM | lethality (LOX IMVI; single dose 10 μM): 50.40% | IC50 (SK-OV-3; SK-OV-3): 2.8 µM | CC50 (SK-OV-3; SK-OV-3, read-out: LC50): 35.4 µM | IC50 (CAKI-1; CAKI-1): 1.89 µM | CC50 (CAKI-1; CAKI-1, read-out: LC50): 32.9 µM | IC50 (IGROV1; IGROV-1): 2.95 µM | CC50 (IGROV1; IGROV-1, read-out: LC50): > 100 µM | inhibition at 10 µM (colon cancer cell lines): 92.2 to 100% | IC50 (TK-10; TK-10): 2.91 µM | CC50 (TK-10; TK-10, read-out: LC50): 33.4 µM | inhibition at 10 µM (leukemia cell lines): 92.8 to 100% | IC50 (SN12C): 2.48 µM | CC50 (SN12C; read-out: LC50): 60.2 µM | IC50 (OVCAR-4; OVCAR-4): 3.54 µM | CC50 (OVCAR-4; OVCAR-4, read-out: LC50): > 100 µM | lethality (HCT-15; HCT-15, single dose 10 μM): 41.55% | IC50 (HCT-15; Homo sapiens, HCT-15): 1.46 µM | CC50 (HCT-15; Homo sapiens, HCT-15, read-out: LC50): > 100 µM | IC50 (HS 578T): > 100 µM | CC50 (HS 578T; read-out: LC50): > 100 µM

Source: PMC9604400, “Synthesis, Anticancer and Antitubercular Properties of New Chalcones and Their Nitrogen-Containing Five-Membered Heterocyclic Hybrids Bearing Sulfonamide Moiety” (International Journal of Molecular Sciences, 2022)
